Test results published in patent publication US20220204476A1, “RNA VIRUS INHIBITOR COMPOUNDS AND USES THEREOF” (The Governors of the University of Alberta, priority 2020, published 2022).

Columns and labels:
[1] = tested on: SARS-CoV-2; test: SARS-CoV-2 in vitro plaque reduction assay in Vero E6 cells; format: cell-based; details: Severe acute respiratory syndrome coronavirus 2, Vero C1008, MOI 0.0001 pfu/cell, plaques counted after 48 h, >5 μM = did not reduce plaque numbers by half at 10 μM, read-out: SARS-CoV-2 Antiviral EC50
[2] = target: SARS-CoV-2 3CLP (Severe acute respiratory syndrome coronavirus 2, UniProt P0DTD1); test: SARS-CoV-2 3CLP inhibition, FRET-based cleavage assay; format: biochemical; details: 80 nM SARS-CoV-2 3CLP, 100 μM substrate, 37° C., 10 min incubation, pH 7.8; read-out: 3CL Protease IC50

| Structure (SMILES) | EC50 [1] | IC50 [2] |
| --- | --- | --- |
| COc1cccc2[nH]c(C(=O)N[C@@H](CC(C)C)C(=O)N[C@@H](C[C@@H]3CCNC3=O)C(=O)COC(=O)c3c(C(F)(F)F)cccc3C(F)(F)F)cc12 [Compound 25, (3S)-3-{[N-(4-methoxy-1H-indole-2-carbonyl)-L-leucyl]amino}-2-oxo-4-[(3S)-2-oxopyrrolidin-3-yl]butyl 2,6-bis(trifluoromethyl)benzoate] | < 0.25 µM | 18 nM |
| COc1cccc2[nH]c(C(=O)N[C@@H](CC(C)C)C(=O)N[C@@H](C[C@@H]3CCNC3=O)C(=O)COC(=O)C(C)(C)C(F)(F)F)cc12 [Compound 27, (3S)-3-{[N-(4-methoxy-1H-indole-2-carbonyl)-L-leucyl]amino}-2-oxo-4-[(3S)-2-oxopyrrolidin-3-yl]butyl 3,3,3-trifluoro-2,2-dimethylpropanoate] | > 5 µM | 29 nM |
| COc1cccc2[nH]c(C(=O)N[C@@H](CC(C)C)C(=O)N[C@@H](C[C@@H]3CCCNC3=O)C(=O)COc3ccc(S(C)(=O)=O)cc3)cc12 [Compound 30, N-[(2S)-1-({(2S)-4-[4-(methanesulfonyl)phenoxy]-3-oxo-1-[(3S)-2-oxopiperidin-3-yl]butan-2-yl}amino)-4-methyl-1-oxopentan-2-yl]-4-methoxy-1H-indole-2-carboxamide] | > 5 µM | 53 nM |
| CC(C)C[C@H](NC(=O)OCc1ccccc1)C(=O)N[C@H](C#N)C[C@@H]1CCCNC1=O [Compound 66, N^2-[(benzyloxy)carbonyl]-N-{(1S)-1-cyano-2-[(3S)-2-oxopiperidin-3-yl]ethyl}-L-leucinamide] | > 5 µM | 340 nM |
| CC(C)C[C@H](NC(=O)OCC1c2ccccc2-c2ccccc21)C(=O)N[C@H](C#N)C[C@@H]1CCCNC1=O [Compound 67, N-{(1S)-1-cyano-2-[(3S)-2-oxopiperidin-3-yl]ethyl}-N^2-{[(9H-fluoren-9-yl)methoxy]carbonyl}-L-leucinamide] | 4.1 µM | 170 nM |
| COc1cc(Cl)cc2[nH]c(C(=O)N[C@@H](CC(C)C)C(=O)N[C@H](C#N)C[C@@H]3CCCNC3=O)cc12 [Compound 68, 6-chloro-N-[(2S)-1-({(1S)-1-cyano-2-[(3S)-2-oxopiperidin-3-yl]ethyl}amino)-4-methyl-1-oxopentan-2-yl]-4-methoxy-1H-indole-2-carboxamide] | 2.2 µM | 9.1 nM |
| CC(C)C[C@H](NC(=O)c1nc(-c2ccccc2)c[nH]1)C(=O)N[C@H](C#N)C[C@@H]1CCCNC1=O [Compound 75, N-{(1S)-1-cyano-2-[(3S)-2-oxopiperidin-3-yl]ethyl}-N^2-(4-phenyl-1H-imidazole-2-carbonyl)-L-leucinamide] | > 5 µM | 160 nM |
| CC(C)C[C@H](NC(=O)C1(O)CCCC1)C(=O)N[C@H](C#N)C[C@@H]1CCCNC1=O [Compound 76, N-{(1S)-1-cyano-2-[(3S)-2-oxopiperidin-3-yl]ethyl}-N^2-(1-hydroxycyclopentane-1-carbonyl)-L-leucinamide] | > 5 µM | 950 nM |
| CC(C)C[C@H](NCC1CC1)C(=O)N[C@H](C#N)C[C@@H]1CCCNC1=O [Compound 77, N-{(1S)-1-cyano-2-[(3S)-2-oxopiperidin-3-yl]ethyl}-N^2-(cyclopropylmethyl)-L-leucinamide] | > 5 µM | 17000 nM |
| CC(C)C[C@H](NCc1ccc[nH]c1=O)C(=O)N[C@H](C#N)C[C@@H]1CCCNC1=O [Compound 78, N-{(1S)-1-cyano-2-[(3S)-2-oxopiperidin-3-yl]ethyl}-N^2-[(2-oxo-1,2-dihydropyridin-3-yl)methyl]-L-leucinamide] | > 5 µM | 47000 nM |
| CC(C)C[C@H](NC(=O)c1cc2ccccc2o1)C(=O)N[C@H](C#N)C[C@@H]1CCCNC1=O [Compound 79, N-[(2S)-1-({(1S)-1-cyano-2-[(3S)-2-oxopiperidin-3-yl]ethyl}amino)-4-methyl-1-oxopentan-2-yl]-1-benzofuran-2-carboxamide] | 4.5 µM | 250 nM |
| CC(C)C[C@H](NC(=O)[C@H]1CCCO1)C(=O)N[C@H](C#N)C[C@@H]1CCCNC1=O [Compound 80, N-{(1S)-1-cyano-2-[(3S)-2-oxopiperidin-3-yl]ethyl}-N^2-[(2R)-oxolane-2-carbonyl]-L-leucinamide] | > 5 µM | 710 nM |
| Cc1ccc(C(=O)N[C@@H](CC(C)C)C(=O)N[C@H](C#N)C[C@@H]2CCCNC2=O)cn1 [Compound 81, N-{(1S)-1-cyano-2-[(3S)-2-oxopiperidin-3-yl]ethyl}-N^2-(6-methylpyridine-3-carbonyl)-L-leucinamide] | > 5 µM | 620 nM |
| CC(C)C[C@H](NS(=O)(=O)c1cccc2c1OCCO2)C(=O)N[C@H](C#N)C[C@@H]1CCCNC1=O [Compound 82, N-{(1S)-1-cyano-2-[(3S)-2-oxopiperidin-3-yl]ethyl}-N^2-(2,3-dihydro-1,4-benzodioxine-5-sulfonyl)-L-leucinamide] | > 5 µM | 2400 nM |
| CC(C)C[C@H](NS(=O)(=O)N1CCCCC1)C(=O)N[C@H](C#N)C[C@@H]1CCCNC1=O [Compound 83, N-{(1S)-1-cyano-2-[(3S)-2-oxopiperidin-3-yl]ethyl}-N^2-(piperidine-1-sulfonyl)-L-leucinamide] | > 5 µM | 4500 nM |
| CC(C)C[C@H](NS(=O)(=O)C1CCCCC1)C(=O)N[C@H](C#N)C[C@@H]1CCCNC1=O [Compound 84, N-{(1S)-1-cyano-2-[(3S)-2-oxopiperidin-3-yl]ethyl}-N^2-(cyclohexanesulfonyl)-L-leucinamide] | > 5 µM | 3100 nM |
| Cc1ccc(S(=O)(=O)N[C@@H](CC(C)C)C(=O)N[C@H](C#N)C[C@@H]2CCCNC2=O)cn1 [Compound 85, N-{(1S)-1-cyano-2-[(3S)-2-oxopiperidin-3-yl]ethyl}-N^2-(6-methylpyridine-3-sulfonyl)-L-leucinamide] | > 5 µM | 6400 nM |
| CC(C)(C)C[C@H](NC(=O)OCC1c2ccccc2-c2ccccc21)C(=O)N[C@H](C#N)C[C@@H]1CCCNC1=O [Compound 86, N-{(1S)-1-cyano-2-[(3S)-2-oxopiperidin-3-yl]ethyl}-N^2-{[(9H-fluoren-9-yl)methoxy]carbonyl}-4-methyl-L-leucinamide] | 4.3 µM | 110 nM |
| Cc1cc(C)c(C(=O)OCC(=O)[C@H](C[C@@H]2CCCNC2=O)NC(=O)[C@H](CC(C)(C)C)NC(=O)[C@H]2CCCO2)c(C)n1 [Compound 87, (3S)-3-({4-methyl-N-[(2R)-oxolane-2-carbonyl]-L-leucyl}amino)-2-oxo-4-[(3S)-2-oxopiperidin-3-yl]butyl 2,4,6-trimethylpyridine-3-carboxylate] | 1.9 µM | 200 nM |
| CC(C)(C)C[C@H](NC(=O)c1nc2ccccc2[nH]1)C(=O)N[C@H](C#N)C[C@@H]1CCCNC1=O [Compound 88, N-[(2S)-1-({(1S)-1-cyano-2-[(3S)-2-oxopiperidin-3-yl]ethyl}amino)-4,4-dimethyl-1-oxopentan-2-yl]-1H-benzimidazole-2-carboxamide] | > 5 µM | 40 nM |
| CC(C)(C)C[C@H](NC(=O)[C@@H]1CCCN1C(=O)OCc1ccccc1)C(=O)N[C@H](C#N)C[C@@H]1CCCNC1=O [Compound 89, 1-[(benzyloxy)carbonyl]prolyl-N-{(1S)-1-cyano-2-[(3S)-2-oxopiperidin-3-yl]ethyl}-4-methyl-L-leucinamide] | > 5 µM | 2800 nM |
| CC(C)(C)C[C@H](NC(=O)[C@@H]1CCCN1)C(=O)N[C@H](C#N)C[C@@H]1CCCNC1=O [Compound 90, prolyl-N-{(1S)-1-cyano-2-[(3S)-2-oxopiperidin-3-yl]ethyl}-4-methyl-L-leucinamide] | > 5 µM | 1100 nM |
| CC(C)C[C@H](NCc1ncco1)C(=O)N[C@H](C#N)C[C@@H]1CCCNC1=O [Compound 91, N-{(1S)-1-cyano-2-[(3S)-2-oxopiperidin-3-yl]ethyl}-N^2-[(1,3-oxazol-2-yl)methyl]-L-leucinamide] | > 5 µM | 37000 nM |
| CC(C)C[C@H](NC[C@@H]1CCCO1)C(=O)N[C@H](C#N)C[C@@H]1CCCNC1=O [Compound 92, N-{(1S)-1-cyano-2-[(3S)-2-oxopiperidin-3-yl]ethyl}-N^2-{[(2S)-oxolan-2-yl]methyl}-L-leucinamide] | > 5 µM | 104000 nM |
| COc1cccc2oc(C(=O)N[C@@H](CC(C)(C)C)C(=O)N[C@H](C#N)C[C@@H]3CCCNC3=O)cc12 [Compound 93, N-[(2S)-1-({(1S)-1-cyano-2-[(3S)-2-oxopiperidin-3-yl]ethyl}amino)-4,4-dimethyl-1-oxopentan-2-yl]-4-methoxy-1-benzofuran-2-carboxamide] | > 5 µM | 240 nM |
| N#C[C@H](C[C@@H]1CCNC1=O)NC(=O)[C@H](CC1CCCCC1)NC(=O)OCc1cccc(Cl)c1 [Compound 94, (3-chlorophenyl)methyl [(2S)-1-({(1S)-1-cyano-2-[(3S)-2-oxopyrrolidin-3-yl]ethyl}amino)-3-cyclohexyl-1-oxopropan-2-yl]carbamate] | > 5 µM | 160 nM |
| CC(C)C[C@H](NCC1CCCCC1)C(=O)N[C@H](C#N)C[C@@H]1CCCNC1=O [Compound 95, N-{(1S)-1-cyano-2-[(3S)-2-oxopiperidin-3-yl]ethyl}-N^2-(cyclohexylmethyl)-L-leucinamide] | > 5 µM | 97000 nM |
| COc1nccc2[nH]c(C(=O)N[C@@H](CC(C)(C)C)C(=O)N[C@H](C#N)C[C@@H]3CCCNC3=O)cc12 [Compound 99, N-[(2S)-1-({(1S)-1-cyano-2-[(3S)-2-oxopiperidin-3-yl]ethyl}amino)-4,4-dimethyl-1-oxopentan-2-yl]-4-methoxy-1H-pyrrolo[3,2-c]pyridine-2-carboxamide] | > 5 µM | 22 nM |
